Assay results: PubChem BioAssay AID288 (DTP/NCI, 2004)
Where “and” joins values, the source holds several entries; their conditions need not be identical. Equal entries are not always repeated. Results filed as inconclusive are left out.

System: BDF1 mice, M5076 sarcoma s.c., survival/tumor T/C
Assay: NCI In Vivo Anticancer Drug Screen. Data for tumor model Sarcoma M5076 (subcutaneous) in B6D2F1 (BDF1) mice
Method: The antitumor activity of compounds was measured in mice bearing transplantable tumors. Survival or tumor size were measured and the results are expressed as the measurement made in the treated group (T) divided by the measurement made in the vehicle treated control group (C). The tumor model used in this assay is Sarcoma M5076 (subcutaneous) in B6D2F1 (BDF1) mice

[1] = endpoint: median survival time, dose: 50.0 mg/kg/injection, schedule: Q01DX009 (ip), vehicle: saline, higher = longer survival
[2] = endpoint: median survival time, dose: 100.0 mg/kg/injection, schedule: Q01DX009 (ip), vehicle: saline, higher = longer survival
[3] = endpoint: median survival time, dose: 200.0 mg/kg/injection, schedule: Q01DX009 (ip), vehicle: saline, higher = longer survival
[4] = endpoint: median tumor weight (est.), dose: 100.0 mg/kg/injection, schedule: Q01DX009 (ip), vehicle: saline, higher = larger tumour

`N[C@H](C(=O)O)[C@@H]1CC(Cl)=NO1` was tested, and the T/C (endpoint: mean tumor weight, dose: 2.0 mg/kg/injection, schedule: Q02DX011 (ip), vehicle: saline, higher = larger tumour) was 2 % of control, the T/C (endpoint: median survival time, dose: 2.0 mg/kg/injection, schedule: Q01DX010 (ip), vehicle: saline, higher = longer survival) was 165 % of control and the T/C (endpoint: median survival time, dose: 4.0 mg/kg/injection, schedule: Q01DX010 (ip), vehicle: saline, higher = longer survival) was 177 % of control. For the same molecule, the T/C (endpoint: median survival time, dose: 8.0 mg/kg/injection, schedule: Q01DX010 (ip), vehicle: saline, higher = longer survival) was 178 % of control, the T/C (endpoint: median survival time, dose: 16.0 mg/kg/injection, schedule: Q01DX010 (ip), vehicle: saline, higher = longer survival) was 90 % of control and the T/C (endpoint: median survival time, dose: 32.0 mg/kg/injection, schedule: Q04DX005 (ip), vehicle: saline, higher = longer survival) was 171 % of control and 176 % of control. For the same molecule, the T/C (endpoint: median survival time, dose: 64.0 mg/kg/injection, schedule: Q04DX005 (ip), vehicle: saline, higher = longer survival) was 184 % of control and 186 % of control and the T/C (endpoint: median survival time, dose: 128.0 mg/kg/injection, schedule: Q04DX005 (ip), vehicle: saline, higher = longer survival) was 193 % of control and 195 % of control.
`COC(=N)CCCCC(=N)OC` was tested, and the T/C [1] was 98 % of control, the T/C [2] was 98 % of control and the T/C [3] was 98 % of control. The T/C (endpoint: median tumor weight (est.), dose: 50.0 mg/kg/injection, schedule: Q01DX009 (ip), vehicle: saline, higher = larger tumour) was 87 % of control and the T/C [4] was 86 % of control.
In the case of `COC12C(COC(N)=O)C3=C(C(=O)C(C)=C(N)C3=O)N1CC1C2N1C` (stereo not given), the T/C (endpoint: mean tumor weight, dose: 1.5 mg/kg/injection, schedule: Q02DX011 (ip), vehicle: saline, higher = larger tumour) is reported as 59 % of control, the T/C (endpoint: mean tumor weight, dose: 3.0 mg/kg/injection, schedule: Q02DX011 (ip), vehicle: saline, higher = larger tumour) is reported as 51 % of control and the T/C (endpoint: mean tumor weight, dose: 6.0 mg/kg/injection, schedule: Q02DX011 (ip), vehicle: saline, higher = larger tumour) is reported as 2 % of control. The T/C (endpoint: median tumor weight (est.), dose: 1.5 mg/kg/injection, schedule: Q02DX011 (ip), vehicle: saline, higher = larger tumour) was 65 % of control, the T/C (endpoint: median tumor weight (est.), dose: 3.0 mg/kg/injection, schedule: Q02DX011 (ip), vehicle: saline, higher = larger tumour) was 49 % of control and 53 % of control and the T/C (endpoint: median tumor weight (est.), dose: 6.0 mg/kg/injection, schedule: Q02DX011 (ip), vehicle: saline, higher = larger tumour) was 1 % of control.
`CSc1ccc(NC(=O)NNP(=S)(Oc2ccc(C(C)(C)C)cc2)Oc2ccc(C(C)(C)C)cc2)cc1` was tested, and the T/C (endpoint: median survival time, dose: 50.0 mg/kg/injection, schedule: Q01DX009 (ip), vehicle: saline with Tween-80, higher = longer survival) was 102 % of control, the T/C (endpoint: median survival time, dose: 100.0 mg/kg/injection, schedule: Q01DX009 (ip), vehicle: saline with Tween-80, higher = longer survival) was 107 % of control and the T/C (endpoint: median survival time, dose: 200.0 mg/kg/injection, schedule: Q01DX009 (ip), vehicle: saline with Tween-80, higher = longer survival) was 87 % of control. The T/C (endpoint: median tumor weight (est.), dose: 50.0 mg/kg/injection, schedule: Q01DX009 (ip), vehicle: saline with Tween-80, higher = larger tumour) was 92 % of control, the T/C (endpoint: median tumor weight (est.), dose: 100.0 mg/kg/injection, schedule: Q01DX009 (ip), vehicle: saline with Tween-80, higher = larger tumour) was 83 % of control and the T/C (endpoint: median tumor weight (est.), dose: 200.0 mg/kg/injection, schedule: Q01DX009 (ip), vehicle: saline with Tween-80, higher = larger tumour) was 92 % of control.
`O=c1[nH]c(=O)n(C2CC(O)C(CO)O2)cc1F` (stereo not given) was tested, and the T/C (endpoint: mean tumor weight, dose: 20.0 mg/kg/injection, schedule: Q02DX011 (ip), vehicle: Klucel (hydroxypropylcellulose) (HPC), higher = larger tumour) was 66 % of control, the T/C (endpoint: mean tumor weight, dose: 40.0 mg/kg/injection, schedule: Q02DX011 (ip), vehicle: Klucel (hydroxypropylcellulose) (HPC), higher = larger tumour) was 49 % of control and the T/C (endpoint: mean tumor weight, dose: 80.0 mg/kg/injection, schedule: Q02DX011 (ip), vehicle: Klucel (hydroxypropylcellulose) (HPC), higher = larger tumour) was 13 % of control. The T/C (endpoint: median tumor weight (est.), dose: 20.0 mg/kg/injection, schedule: Q02DX011 (ip), vehicle: Klucel (hydroxypropylcellulose) (HPC), higher = larger tumour) was 62 % of control, the T/C (endpoint: median tumor weight (est.), dose: 40.0 mg/kg/injection, schedule: Q02DX011 (ip), vehicle: Klucel (hydroxypropylcellulose) (HPC), higher = larger tumour) was 46 % of control and 70 % of control and the T/C (endpoint: median tumor weight (est.), dose: 160.0 mg/kg/injection, schedule: Q02DX011 (ip), vehicle: Klucel (hydroxypropylcellulose) (HPC), higher = larger tumour) was 23 % of control.
`O=C(N/N=C\c1cc(Br)cc(Br)c1O)N/N=C/c1cc(Br)cc(Br)c1O` was tested, and the T/C (endpoint: median survival time, dose: 200.0 mg/kg/injection, schedule: Q04DX003 (ip), vehicle: saline with Tween-80, higher = longer survival) was 111 % of control, the T/C (endpoint: median survival time, dose: 400.0 mg/kg/injection, schedule: Q04DX003 (ip), vehicle: saline with Tween-80, higher = longer survival) was 112 % of control and the T/C (endpoint: median survival time, dose: 800.0 mg/kg/injection, schedule: Q04DX003 (ip), vehicle: saline with Tween-80, higher = longer survival) was 97 % of control.
With `NCCNCC(O)CO` (stereo not given) the T/C [1] was 90 % of control, the T/C [2] was 112 % of control and the T/C [3] was 105 % of control. The T/C [4] was 76 % of control and the T/C (endpoint: median tumor weight (est.), dose: 200.0 mg/kg/injection, schedule: Q01DX009 (ip), vehicle: saline, higher = larger tumour) was 115 % of control.
In the case of `CN(C)S(=O)(=O)c1ccc(CCCCc2ccc(N3C(N)=NC(N)=NC3(C)C)cc2Cl)c(Cl)c1`, the T/C (endpoint: median survival time, dose: 38.0 mg/kg/injection, schedule: Q01DX009 (ip), vehicle: saline with Tween-80, higher = longer survival) is reported as 100 % of control.
